Two compounds from paper PMC6469167, “Cholecystokinin-2 Receptor Targeting with Novel C-terminally Stabilized HYNIC-Minigastrin Analogs Radiolabeled with Technetium-99m” (Pharmaceuticals, 2019) can be followed below.

Series [1] concerns A431-CCK2R and A431-mock tumor-xenografts. Also noted: species or system athymic BALB/c nude mice. The note with it: mouse, in vivo. How it is done: Biodistribution studies evaluating the tumor uptake of [^99mTc]Tc-HYNIC-MGS5 and [^99mTc]Tc-HYNIC-MGS11 were performed in 7 week-old female athymic BALB/c nude mice (Charles River, Sulzfeld, Germany). To induce tumor-xenografts, mice were injected subcutaneously with 2 × 10^6 A431-CCK2R (right flank) and A431-mock cells (left flank). The tumor-xenografts were allowed to grow for 11–12 days reaching medium tumor weights of ~0.2 g. Mice were randomly divided into groups of four and injected intravenously via a lateral tail vein with 0.3 MBq of the ^99mTc-labeled HYNIC-analogs (corresponding to ~15 pmol total peptide). The groups of animals were sacrificed at 1 h and 4 h p.i., tumors and other tissues (blood, lung, heart, muscle, bone, spleen, intestine, liver, kidney, stomach and pancreas) were removed, weighed, and the radioactivity measured together with a standard in the gamma counter. Results were expressed as percentage of injected activity per gram tissue (% IA/g) and tumor-to-organ activity ratios were calculated for selected tissues. […] The radioactivity in selected organs (stomach, pancreas, liver, kidneys, A431-CCK2R and A431-mock xenograft) was additionally visualized by autoradiography using a phosphorimager (Cyclone Plus, PerkinElmer Life Sciences and Analytical Sciences, Downers Grove, Il, USA). […]

The nature of the next series: physchem. Format: physicochemical. Here is the method:
The resistance against degradation of [^99mTc]Tc-HYNIC-MGS5 and [^99mTc]Tc-HYNIC-MGS11 (1000 pmol/mL, n = 2) in human serum was studied for up to 24 h. Furthermore, the radiopeptides were incubated in PBS (1000 pmol/mL, n = 1). At each time point of 1, 2, 4 and 24 h after incubation the intact radiopeptide was assessed by analytical HPLC. Serum samples were precipitated with ACN and centrifuged to collect the supernatant and diluted with water prior to radio-HPLC. […] From each phase a 75 µL sample was taken, the radioactivity measured in a 2480 Wizard^2 automatic gamma-counter (PerkinElmer Life Sciences and Analytical Sciences, Wallac Oy, Turku, Finland) and the distribution of the radiopeptides calculated. The protein binding in human serum (500 pmol/mL, n = 2) was assessed by Sephadex G-50 size-exclusion chromatography (GE Healthcare Illustra, Little Chalfont, UK) for up to 24 h.

For the compound `CCCC[C@@H](C(=O)N[C@@H](CC(=O)O)C(=O)N[C@@H](Cc1cccc2ccccc12)C(N)=O)N(C)C(=O)[C@H](Cc1c[nH]c2ccccc12)NC(=O)CNC(=O)[C@H](Cc1ccc(O)cc1)NC(=O)[C@H](C)NC(=O)[C@@H](CCC(=O)O)NC(=O)c1ccc(NN)nc1` [[^99mTc]Tc-HYNIC-MGS5, metal not drawn], in series [1], the tumor-to-kidney ratio was 2.4–3.3. In the series “physchem”, this compound returned a logD of -2.91 ± 0.06.
The corresponding values for `CCCC[C@@H](C(=O)N[C@@H](CC(=O)O)C(=O)N(C)[C@@H](Cc1cccc2ccccc12)C(N)=O)N(C)C(=O)[C@H](Cc1c[nH]c2ccccc12)NC(=O)CNC(=O)[C@H](Cc1ccc(O)cc1)NC(=O)[C@H](C)NC(=O)[C@@H](CCC(=O)O)NC(=O)c1ccc(NN)nc1` [[^99mTc]Tc-HYNIC-MGS11, metal not drawn] are 2.0–2.6 and -2.84 ± 0.08.
